Drawing on ChEMBL document CHEMBL1136454, “Synthesis and biological activity of N-Acylated ornithine analogues of daptomycin” (Bioorg Med Chem Lett, 2003), this text covers MIC for 13 compounds.

Holding throughout (format): functional
The subject of one experiment is Enterococcus faecalis. The experiment can be described thus: Antibacterial activity against Enterococcus faecalis ATCC 49452.
In experiment [1] the test system is Staphylococcus aureus. The experiment can be described thus: Antibacterial activity against methicillin susceptible Staphylococcus aureus ATCC 29213 (MSSA ).
Another experiment has as its system Enterococcus faecium. Put plainly: Antibacterial activity against Enterococcus faecium ATCC 6569.
The test system of experiment [2] is Staphylococcus aureus. The experiment can be described thus: Antibacterial activity against methicillin resistant Staphylococcus aureus ATCC 43300 (MRSA).

≈ marks a conversion by molar mass, not a printed value.

For `CCCCCCCCCC(=O)N[C@@H](Cc1c[nH]c2ccccc12)C(=O)N[C@@H](CC(N)=O)C(=O)N[C@@H](CC(=O)O)C(=O)N[C@@H]1C(=O)NCC(=O)N[C@@H](CCCNC(=O)C(N)Cc2c[nH]c3ccccc23)C(=O)N[C@@H](CC(=O)O)C(=O)N[C@H](C)C(=O)N[C@@H](CC(=O)O)C(=O)NCC(=O)N[C@H](CO)C(=O)N[C@@H]([C@H](C)CC(=O)O)C(=O)N[C@@H](CC(=O)c2ccccc2N)C(=O)O[C@@H]1C` (stereo partly drawn), the MIC (in general, the least concentration at which growth counts as inhibited) in the experiment on Enterococcus faecalis came out at 12.5 µg/mL (≈ 6.92 µM); with Staphylococcus aureus [1], 1.56 µg/mL (≈ 0.863 µM); with Enterococcus faecium, 6.25 µg/mL (≈ 3.46 µM); in the experiment with Staphylococcus aureus [2], 1.56 µg/mL (≈ 0.863 µM).
With `CCCCCCCCCC(=O)N[C@@H](Cc1c[nH]c2ccccc12)C(=O)N[C@@H](CC(N)=O)C(=O)N[C@@H](CC(=O)O)C(=O)N[C@@H]1C(=O)NCC(=O)N[C@@H](CCCNC(=O)C(N)Cc2c[nH]c3ccc(OC)cc23)C(=O)N[C@@H](CC(=O)O)C(=O)N[C@H](C)C(=O)N[C@@H](CC(=O)O)C(=O)NCC(=O)N[C@H](CO)C(=O)N[C@@H]([C@H](C)CC(=O)O)C(=O)N[C@@H](CC(=O)c2ccccc2N)C(=O)O[C@@H]1C` (stereo partly drawn), the MIC against Enterococcus faecalis turned out to be 25 µg/mL (≈ 13.6 µM); against Staphylococcus aureus [1], 1.56 µg/mL (≈ 0.849 µM); with Enterococcus faecium it was 12.5 µg/mL (≈ 6.8 µM); against Staphylococcus aureus [2], 1.56 µg/mL (≈ 0.849 µM).
Turning to `CCCCCCCCCC(=O)N[C@@H](Cc1c[nH]c2ccccc12)C(=O)N[C@H](CC(N)=O)C(=O)N[C@@H](CCO)C(=O)N[C@@H]1C(=O)NCC(=O)N[C@@H](CCCNC(=O)C(N)Cc2c[nH]c3ccc(F)cc23)C(=O)N[C@@H](CC(=O)O)C(=O)N[C@H](C)C(=O)N[C@@H](CC(=O)O)C(=O)NCC(=O)N[C@H](CO)C(=O)N[C@@H]([C@H](C)CC(=O)O)C(=O)N[C@@H](CC(=O)c2ccccc2N)C(=O)O[C@@H]1C` (stereo partly drawn), the MIC was 1.56 µg/mL (≈ 0.861 µM) with Enterococcus faecalis, 1.56 µg/mL (≈ 0.861 µM) in the experiment with Staphylococcus aureus [1], 3.1 µg/mL (≈ 1.71 µM) against Enterococcus faecium and 1.56 µg/mL (≈ 0.861 µM) in the experiment with Staphylococcus aureus [2].
With `CCCCCCCCCC(=O)N[C@@H](Cc1c[nH]c2ccccc12)C(=O)N[C@H](CC(N)=O)C(=O)N[C@@H](CC(=O)O)C(=O)N[C@@H]1C(=O)NCC(=O)N[C@@H](CCCNC(=O)c2cccc(OC)c2N)C(=O)N[C@@H](CC(=O)O)C(=O)N[C@H](C)C(=O)N[C@@H](CC(=O)O)C(=O)NCC(=O)N[C@H](CO)C(=O)N[C@@H]([C@H](C)CC(=O)O)C(=O)N[C@@H](CC(=O)c2ccccc2N)C(=O)O[C@@H]1C`, the results for the MIC against Enterococcus faecalis, against Staphylococcus aureus [1] and in the experiment with Enterococcus faecium were 10 µg/mL (≈ 5.65 µM), 0.63 µg/mL (≈ 0.356 µM) and 10 µg/mL (≈ 5.65 µM), respectively.
In the case of `CCCCCCCCCC(=O)N[C@@H](Cc1c[nH]c2ccccc12)C(=O)N[C@H](CC(N)=O)C(=O)N[C@@H](CC(=O)O)C(=O)N[C@@H]1C(=O)NCC(=O)N[C@@H](CCCNC(=O)c2cccc(C)c2N)C(=O)N[C@@H](CC(=O)O)C(=O)N[C@H](C)C(=O)N[C@@H](CC(=O)O)C(=O)NCC(=O)N[C@H](CO)C(=O)N[C@@H]([C@H](C)CC(=O)O)C(=O)N[C@@H](CC(=O)c2ccccc2N)C(=O)O[C@@H]1C`, the MIC turned out to be 10 µg/mL (≈ 5.7 µM) against Enterococcus faecalis, 0.63 µg/mL (≈ 0.359 µM) against Staphylococcus aureus [1] and 10 µg/mL (≈ 5.7 µM) against Enterococcus faecium.
For `CCCCCCCCCC(=O)N[C@@H](Cc1c[nH]c2ccccc12)C(=O)N[C@H](CC(N)=O)C(=O)N[C@@H](CC(=O)O)C(=O)N[C@@H]1C(=O)NCC(=O)N[C@@H](CCCNC(=O)c2cc(C(=O)O)ccc2N)C(=O)N[C@@H](CC(=O)O)C(=O)N[C@H](C)C(=O)N[C@@H](CC(=O)O)C(=O)NCC(=O)N[C@H](CO)C(=O)N[C@@H]([C@H](C)CC(=O)O)C(=O)N[C@@H](CC(=O)c2ccccc2N)C(=O)O[C@@H]1C`, the MIC came to 12.5 µg/mL (≈ 7.01 µM) against Enterococcus faecalis, 1.25 µg/mL (≈ 0.701 µM) against Staphylococcus aureus [1], 10 µg/mL (≈ 5.61 µM) against Enterococcus faecium and 3.1 µg/mL (≈ 1.74 µM) against Staphylococcus aureus [2].
On the same counts, the results for `CCCCCCCCCC(=O)N[C@@H](Cc1c[nH]c2ccccc12)C(=O)N[C@H](CC(N)=O)C(=O)N[C@@H](CC(=O)O)C(=O)N[C@@H]1C(=O)NCC(=O)N[C@@H](CCCNC(=O)c2ccccc2I)C(=O)N[C@@H](CC(=O)O)C(=O)N[C@H](C)C(=O)N[C@@H](CC(=O)O)C(=O)NCC(=O)N[C@H](CO)C(=O)N[C@@H]([C@H](C)CC(=O)O)C(=O)N[C@@H](CC(=O)c2ccccc2N)C(=O)O[C@@H]1C` are 12.5 µg/mL (≈ 6.75 µM), 1.56 µg/mL (≈ 0.843 µM), 3.1 µg/mL (≈ 1.68 µM) and 1.56 µg/mL (≈ 0.843 µM).
For the compound `CCCCCCCCCC(=O)N[C@@H](Cc1c[nH]c2ccccc12)C(=O)N[C@H](CC(N)=O)C(=O)N[C@@H](CC(=O)O)C(=O)N[C@@H]1C(=O)NCC(=O)N[C@@H](CCCNC(=O)c2ccccc2SC)C(=O)N[C@@H](CC(=O)O)C(=O)N[C@H](C)C(=O)N[C@@H](CC(=O)O)C(=O)NCC(=O)N[C@H](CO)C(=O)N[C@@H]([C@H](C)CC(=O)O)C(=O)N[C@@H](CC(=O)c2ccccc2N)C(=O)O[C@@H]1C`, the MIC was found to be 25 µg/mL (≈ 14.1 µM) against Enterococcus faecalis, 3.1 µg/mL (≈ 1.75 µM) against Staphylococcus aureus [1], 6.25 µg/mL (≈ 3.53 µM) with Enterococcus faecium and 1.56 µg/mL (≈ 0.881 µM) against Staphylococcus aureus [2].
Consider `CCCCCCCCCC(=O)N[C@@H](Cc1c[nH]c2ccccc12)C(=O)N[C@H](CC(N)=O)C(=O)N[C@@H](CC(=O)O)C(=O)N[C@@H]1C(=O)NCC(=O)N[C@@H](CCCNC(=O)c2ccccc2OC)C(=O)N[C@@H](CC(=O)O)C(=O)N[C@H](C)C(=O)N[C@@H](CC(=O)O)C(=O)NCC(=O)N[C@H](CO)C(=O)N[C@@H]([C@H](C)CC(=O)O)C(=O)N[C@@H](CC(=O)c2ccccc2N)C(=O)O[C@@H]1C`, for which the MIC was 25 µg/mL (≈ 14.2 µM) in the experiment on Enterococcus faecalis, 1.25 µg/mL (≈ 0.712 µM) against Staphylococcus aureus [1], 6.25 µg/mL (≈ 3.56 µM) against Enterococcus faecium and 3.1 µg/mL (≈ 1.77 µM) in the experiment with Staphylococcus aureus [2].
On to `CCCCCCCCCC(=O)N[C@@H](Cc1c[nH]c2ccccc12)C(=O)N[C@H](CC(N)=O)C(=O)N[C@@H](CC(=O)O)C(=O)N[C@@H]1C(=O)NCC(=O)N[C@@H](CCCNC(=O)c2cc(O)ccc2N)C(=O)N[C@@H](CC(=O)O)C(=O)N[C@H](C)C(=O)N[C@@H](CC(=O)O)C(=O)NCC(=O)N[C@H](CO)C(=O)N[C@@H]([C@H](C)CC(=O)O)C(=O)N[C@@H](CC(=O)c2ccccc2N)C(=O)O[C@@H]1C`, for which the minimal inhibitory concentration (MIC) turned out to be 10 µg/mL (≈ 5.7 µM) in the experiment on Enterococcus faecalis, 1.25 µg/mL (≈ 0.712 µM) against Staphylococcus aureus [1] and 10 µg/mL (≈ 5.7 µM) against Enterococcus faecium.
Take `CCCCCCCCCC(=O)N[C@@H](Cc1c[nH]c2ccccc12)C(=O)N[C@H](CC(N)=O)C(=O)N[C@@H](CC(=O)O)C(=O)N[C@@H]1C(=O)NCC(=O)N[C@@H](CCCNC(=O)c2cc(OC)ccc2N)C(=O)N[C@@H](CC(=O)O)C(=O)N[C@H](C)C(=O)N[C@@H](CC(=O)O)C(=O)NCC(=O)N[C@H](CO)C(=O)N[C@@H]([C@H](C)CC(=O)O)C(=O)N[C@@H](CC(=O)c2ccccc2N)C(=O)O[C@@H]1C`: the MIC against Enterococcus faecalis worked out at 10 µg/mL (≈ 5.65 µM); in the experiment with Staphylococcus aureus [1], 2.5 µg/mL (≈ 1.41 µM); against Enterococcus faecium, 10 µg/mL (≈ 5.65 µM).
As to `CCCCCCCCCC(=O)N[C@@H](Cc1c[nH]c2ccccc12)C(=O)N[C@H](CC(N)=O)C(=O)N[C@@H](CCO)C(=O)N[C@@H]1C(=O)NCC(=O)N[C@@H](CCCNC(=O)c2c(N)cccc2F)C(=O)N[C@@H](CC(=O)O)C(=O)N[C@H](C)C(=O)N[C@@H](CC(=O)O)C(=O)NCC(=O)N[C@H](CO)C(=O)N[C@@H]([C@H](C)CC(=O)O)C(=O)N[C@@H](CC(=O)c2ccccc2N)C(=O)O[C@@H]1C`, the MIC stood at 3.1 µg/mL (≈ 1.78 µM) with Enterococcus faecalis, 0.78 µg/mL (≈ 0.447 µM) with Staphylococcus aureus [1], 3.1 µg/mL (≈ 1.78 µM) in the experiment with Enterococcus faecium and 0.78 µg/mL (≈ 0.447 µM) against Staphylococcus aureus [2].
In the case of `CCCCCCCCCC(=O)N[C@@H](Cc1c[nH]c2ccccc12)C(=O)N[C@H](CC(N)=O)C(=O)N[C@@H](CCO)C(=O)N[C@@H]1C(=O)NCC(=O)N[C@@H](CCCNC(=O)c2ccccc2)C(=O)N[C@@H](CC(=O)O)C(=O)N[C@H](C)C(=O)N[C@@H](CC(=O)O)C(=O)NCC(=O)N[C@H](CO)C(=O)N[C@@H]([C@H](C)CC(=O)O)C(=O)N[C@@H](CC(=O)c2ccccc2N)C(=O)O[C@@H]1C`, the MIC in the experiment on Enterococcus faecalis amounted to 25 µg/mL (≈ 14.6 µM); against Staphylococcus aureus [1], 6.25 µg/mL (≈ 3.65 µM); against Enterococcus faecium it was 25 µg/mL (≈ 14.6 µM); in the experiment on Staphylococcus aureus [2] it was 12.5 µg/mL (≈ 7.31 µM).
